We go through 6 compounds from article PMC4383003, “Transfer hydrogenation catalysis in cells as a new approach to anticancer drug design” (Nature Communications, 2015).

As a reminder, the IC50 is the concentration needed to halve the response being measured. As a reminder, the ΔTm is the shift of the melting midpoint relative to a reference.

Series [1] relates to A2780 human ovarian cancer cells. Kind of series: In vitro growth inhibition assay (SRB), A2780. It is filed as cell-based. On the procedure:
A2780 human ovarian carcinoma and MRC5 human fetal lung fibroblasts were obtained from the European Collection of Cell Cultures. Both cell lines were grown in Roswell Park Memorial Institute medium (RPMI-1640) supplemented with 10% of fetal calf serum, 1% of 2 mM glutamine and 1% penicillin/streptomycin. All cells were grown as adherent monolayers at 310 K in a 5% CO2-humidified atmosphere and passaged at ca. 70–80% confluency.
The antiproliferative activity of complexes 1–8 was determined in A2780 ovarian cancer cells and MRC5 fibroblasts. Briefly, 96-well plates were used to seed 5,000 cells per well. The plates were left to pre-incubate with drug-free medium at 310 K for 48 h before adding different concentrations of the compounds to be tested. A drug exposure period of 24 h was allowed. After this, supernatants were removed by suction and each well was washed with PBS. A further 72 h were allowed for the cells to recover in drug-free medium at 310 K. The sulforhodamine B (SRB) assay was used to determine cell viability. IC50 values, as the concentration that causes 50% cell death, were determined as duplicates of triplicates in two independent sets of experiments and their s.d. were calculated.

Series [2] deals with A2780 ovarian cancer cells. Kind of series: Cell viability on co-administration of Ru complexes (1/3 x IC50) with formate or acetate. It is filed as cell-based, human. The note with it: for Cell viability / Cell viability percentages: A2780, complex 1/3 x IC50, 24 h. On the procedure:
Cell viability assays were carried out with complexes 1–8 in A2780 ovarian cancer cells. These experiments were carried out as described above with the following modifications: a fixed concentration of each Ru complex equal to 1/3 × IC50 was used in co-administration with three different concentrations of sodium formate or sodium acetate (0.5, 1.0 and 2.0 mM). To prepare the stock solution of the drug, the complex was dissolved in 5% dimethylsulfoxide and diluted in a 1:1 mixture of 0.9% saline:cell culture medium. This stock was further diluted using RPMI-1640 until working concentrations were achieved. Separately, stock solutions of sodium formate or sodium acetate were prepared in saline. The complex and formate were added to each well independently, but within 5 min of each other.
Supplementary Table 7: Percent cell viability of A2780 ovarian cancer cells exposed to equipotent concentrations of ruthenium complexes 1-3 and 5-8 (1/3 x […]
The experiments included 48 h of pre-incubation and 72 h of drug recovery, both in drug-free medium at 310 K in a 5% CO2 humidified atmosphere. All the experiments were performed as duplicates of triplicates in independent experiments and the error bars were calculated as the standard deviation from the mean.
Supplementary Table 11: Cell viability (%) of A2780 ovarian cancer cells exposed […]
administered with different concentrations of sodium acetate (0, 0.5, 1 and 2 mM).
The experiments involved 48 h of pre-incubation and 72 h of drug recovery, both in […]
Cell viability percentages (%)
Complex Acetate concentration (mM)

The test system of series [3] is A2780 ovarian cancer cells. Kind of series: Ruthenium accumulation in cancer cells (ICP-MS). It is filed as cell-based, human. The following applies: for Cell Ru: A2780, 1/3 x IC50, 24 h drug exposure, no recovery time; for Cell accum.: A2780, 24 h, 1/3 x IC50. On the procedure:
Briefly, 1.5 × 10^6 cells per well were seeded on a six-well plate. […] After this time, cells were washed, treated with trypsin-EDTA, counted and cell pellets were collected. Each pellet was digested overnight in concentrated nitric acid (73%) at 353 K; the resulting solutions were diluted using double-distilled water to give a final concentration of 5% HNO3 and the amount of Ru taken up by the cells was determined by ICP–MS. […]
Supplementary Table 3: Antiproliferative activity of complexes 1-8 in A2780 ovarian cancer cells and their cellular accumulation (expressed as ng Ru per million cells).
The latter experiments were carried out using equipotent concentrations of the […]
experiments were performed as duplicates of triplicates in independent experiments and the error bars were calculated as the standard deviation from the mean. […]

In series [4] the test system is calf thymus DNA. As to the kind of experiment: Interaction with calf thymus DNA (ethanol precipitation, ICP-MS of Ru). It is filed as binding. The note with it: for free Ru in supernatant: CT-DNA, 1:3 complex:base pairs, 310 K. On the procedure:
Interaction with calf thymus DNA
Complex 2 was chosen as representative of the series. A stock solution of complex 2 (0.7 mM in 5 % acetonitrile/water) was prepared and aliquots of 66 μL were added to a solution of CT-DNA (final ratio 1:3 complex: base pairs-DNA) in water, 2 mM cacodylate buffer and 2 mM NaCl. The reaction mixture was incubated at 310 K, and aliquots of 300 μL were taken at different intervals during a period of 27 h. The DNA was then precipitated by addition of ethanol (700 μL, final concentration 70% v/v). Ru complexes which are strongly bound to CT-DNA will precipitate together with the DNA upon addition of ethanol, and, therefore the ruthenium concentration in the supernatant should decrease. However, no changes in the Ru concentration were detected by ICP-MS showing that the interaction between the complex 2 and DNA is weak (t = 0 h / 64.2 ± 0.7 µM, t = 24 h/ 65.1 ± 0 .3 µM free Ru). In contrast complex 8

Series [5] relates to CT-DNA. As to the kind of experiment: Thermal stability (melting temperature) of CT-DNA by UV-Vis. It is filed as binding, calf. The following applies: for Tm: CT-DNA, 1:3 complex:base pairs, 2 mM cacodylate pH 7.4, 2 h 310 K. On the procedure:
Supplementary Table 6: Melting temperature (Tm) of CT-DNA in the presence of 8 or complex 2 (ratio 1:3, complex: base pairs-DNA). The reactions were carried out in cacodylate buffer (2 mM, pH 7.4), and samples incubated for 2 h at 310 K. […]
a variation in melting temperature between free DNA and DNA in the presence of the corresponding complex. * […] from free DNA using a T-test analysis. ** p < 0.01 from free DNA using a T-test analysis […]
Thermal stability of CT-DNA
The melting temperature of CT-DNA in the presence and absence of complex 2 [(p-cym)Ru(TsEn)Cl] was determined by UV-Vis spectroscopy (Supplementary Table 6). Higher melting temperatures indicate increased stabilization of the DNA, which is the effect produced by DNA-intercalators and often by direct metal coordination to […]
the nucleobases.11 Destabilization of DNA can result in a decrease of the melting […]
In the presence of complex 8, the melting temperature of CT-DNA increased In agreement with the literature, 12 by 14 K, in 2 mM NaCl, 2 mM cacodylate buffer.
This increase is due to Ru binding to DNA as well as intercalation. 12 However, upon increasing the chloride concentration by ca. 10x (20 mM NaCl) the melting temperature of CT-DNA in the presence of complex 8, increased only by 7 K. This effect has previously been reported and it is attributed to the partial inhibition of hydrolysis, and, therefore, inhibition of coordination to DNA. 12, 13
Experiments performed in the presence of complex 2, in 2 mM cacodylate buffer and […]
NaCl, no decrease of the melting temperature was observed. […]

[6] abbreviates: A2780, 24 h drug exposure, no formate.

Several values for one entry are separate records, joined by “and”; a condition that tells them apart may be missing. Identical values can stand only once.

Regarding `CS(=O)(=O)[N-]CCN.[Cl-].[Ru+2].c1ccc(-c2ccccc2-c2ccccc2)cc1` [Complex 5, [(o-terp)Ru(MsEn)Cl]], inhibition in series [1] (A2780, Supplementary Table 3) was half-maximal at 12.4 ± 0.9 µM (IC50). Also, the Cell viability in series [2] (formate 0 mM) is reported as 73.59 ± 0.04%; in series [2] (formate 0.5 mM) it was 71.9 ± 0.4%; in series [2] (formate 1 mM), 44.2 ± 0.2%; in series [2] (formate 2 mM) it was 5.8 ± 0.6%. In addition, the “Cell Ru” value in series [3] turned out to be 2.8 ± 0.3 ng x 106 cells. In addition, the Cell accum. in series [3] was 2.8 ng Ru/10^6 cells.

On to `Cc1ccc(S(=O)(=O)[N-]CCN)cc1.[Cl-].[Ru+2].c1ccc(-c2ccccc2-c2ccccc2)cc1` [Complex 6, [(o-terp)Ru(TsEn)Cl]], for which the IC50 in series [1] (A2780, Supplementary Table 3) came out at 15.8 ± 0.8 µM. Besides, the Cell viability in series [2] (formate 0 mM) stood at 72.8 ± 0.9%; in series [2] (formate 0.5 mM), 59 ± 3%; in series [2] (formate 1 mM), 43.6 ± 1.4%; in series [2] (formate 2 mM), 22.2 ± 0.8%. Also, the “Cell Ru” value in series [3] stood at 2.1 ± 0.4 ng x 106 cells.

Turning to `NCC[N-]S(=O)(=O)c1ccc(C(F)(F)F)cc1.[Cl-].[Ru+2].c1ccc(-c2ccccc2-c2ccccc2)cc1` [Complex 7, [(o-terp)Ru(TfEn)Cl]], the half-inhibitory concentration (IC50) in series [1] (A2780, Supplementary Table 3) turned out to be 21.2 ± 0.1 µM. Besides, the Cell viability in series [2] (formate 0 mM) amounted to 40 ± 2%; in series [2] (formate 0.5 mM), 20.8 ± 0.6%; in series [2] (formate 1 mM) it was 11.9 ± 0.6%; in series [2] (formate 2 mM) it was 2.5 ± 0.7%. For the same compound, the “decrease in cell survival” value in series [2] (A2780, formate increased from 0 to 2 mM) is “ca. 16 fold”. In addition, the “Cell Ru” value in series [3] was 2.4 ± 0.3 ng x 106 cells. Besides, the Cell accum. in series [3] turned out to be 2.4 ng Ru/10^6 cells.

For `NCCN.[Cl-].[Ru+2].c1ccc(-c2ccccc2)cc1` [Complex 8, [(bip)Ru(en)Cl]^+, reference compound], the IC50 stood at 2.2 µM in series [1] (setting [6]) and 2.17 ± 0.08 µM in series [1] (A2780, Supplementary Table 3). Besides, the Cell viability percentages in series [2] (acetate 0 mM) is listed as 75.4 ± 2%; in series [2] (acetate 0.5 mM), 73.1 ± 0.8%; in series [2] (acetate 1 mM), 72 ± 1%. In addition, the Cell viability in series [2] (formate 0.5 mM) is 71 ± 1%; in series [2] (formate 1 mM), 61 ± 1%; in series [2] (formate 2 mM), 39 ± 1% and ~39%. The “free Ru in supernatant” value is given as 58.3 ± 0.3 µM in series [4] (t = 0 h) and 48.5 ± 0.6 µM in series [4] (t = 24 h). Further, the “binding to calf thymus DNA” value in series [4] (ICP-MS of Ru, up to 27 h at 310 K, 1:3 complex:DNA base pairs, 2 mM cacodylate pH 7.4, 2 mM NaCl) is given as “bind strongly”. The “increase of melting temperature of CT-DNA” value in series [5] (2 mM NaCl, 2 mM cacodylate buffer) was -259 °C; in series [5] (20 mM NaCl), -266 °C. Besides, the Tm in series [5] (2 mM NaCl) came to 63.8 ± 0.8 °C; in series [5] (20 mM NaCl), 67.1 ± 0.6 °C. Moreover, the thermal shift (ΔTm) in series [5] (versus free DNA, 20 mM NaCl) came to 7.9 °C.

In turn, `N.N.[Cl][Pt][Cl]` [cisplatin, reference compound] had an IC50 in series [1] (setting [6]) of 1.2 µM.

For the compound `O=C[O-].[Na+]` [formate, sodium formate], in series [2] (A2780, 0 to 2 mM), the “toxicity of formate itself to the cells” value was “non-toxic”.
